Data reported in US20100256385A1, “PROSTAGLANDIN E RECEPTOR ANTAGONISTS” (ALLERGAN, INC., priority 2009, published 2010).

Assays:
human osteoclasts = assay: Calcium Response in human osteoclasts; assay type: cell-based; settings: for Calcium Response: agonist alone (FIG. 1, FIG. 2)

SMILES: O=C(CCc1ccc(F)cc1C[C@@H]1[C@H](c2nc(C(=O)NCCCCC3CCCCC3)co2)[C@H]2CC[C@H]1O2)NC(CO)CO [Example 1, N-(1,3-Dihydroxyprop-2-yl)-3-(2-{(1R,2R,3S,4R)-3-[4-(4-cyclohexyl-butylcarbamoyl)-oxazol-2-yl]-7-oxa-bicyclo[2.2.1]hept-2-ylmethyl}-4-fluoro-phenyl)-propionamide]
- melting point: 165 to 166 °C
- Block of the Calcium Response initiated by PGE2 (human osteoclasts; response initiated by PGE2 (FIG. 3)): blocked

SMILES: CCCCC[C@H](O)/C=C/[C@H]1[C@H](O)CC(=O)[C@@H]1C/C=C\CCCC(=O)O [PG-2]
- Calcium Response (human osteoclasts): does not cause a Calcium Response

SMILES: CCCCC[C@H](O)/C=C/[C@H]1[C@H](O)CC(=O)[C@@H]1C/C=C\CCCC(=O)OCC(O)CO (stereo partly shown) [PG-2 Glycerol Ester]
- Calcium Response (human osteoclasts): induces a Calcium Response
